Tests used:
[1] = Stability test (Test 3), closed vial, HPLC area percentage of Compound A; type: physicochemical
Description: Stability test on each test sample was conducted under following storage conditions.
(§1) Column: SUMIPAX ODS-A212 (silica gel binding with octadecyl group, particle size 5 μm; 6.0 mm φ×15 cm), mobile phase A solution: a mixture of 0.005 mol/L phosphate buffer (pH7.0) and acetonitrile (300:23(v/v)), mobile phase B solution: acetonitrile, solvent for sample: water and acetonitrile (90:10(v/v)), wavelength: 220 nm, column temperature: constant temperature around 25° C., flow rate: 1.0 mL/min, injection amount: 10 μL, and gradient condition: […]

[2] = Stability test on Form I crystal under humidity condition (Test 4); type: physicochemical; details: usual handling condition
Description: Evaluation was based on change of area percentage of Compound A with HPLC (High Performance Liquid Chromatography) under following conditions:
as §1
In order to confirm the stability on Form I crystal under humidity condition was conducted following test. The test was carried out by using moisture-absorbed Form I crystal, which was prepared by storing Form I crystal obtained by the method of Example 2 under the atmosphere with 53% RH in a whole day in order to make it absorb moisture.

[3] = test system: Gram positive bacteria, especially methicillin resistant staphylococcus and methicillin resistant coagulase negative staphylococcus; details: cited from earlier work

C[C@H]1C=C(c2csc(SC3=C(C(=O)O)N4C(=O)[C@H]([C@@H](C)O)[C@H]4[C@H]3C)n2)CN1 [Form I crystal, (4R,5S,6S)-6-[(1R)-1-hydroxyethyl]-4-methyl-3-({4-[(5S)-5-methyl-2,5-dihydro-1H-pyrrol-3-yl]-1,3-thiazol-2-yl}thio)-7-oxo-1-azabicyclo[3.2.0]hept-2-ene-2-carboxylic acid]
Compound A (HPLC surface area %) ([1]; closed vial at 55° C., 2 weeks): 99.60% | Difference from initial value (HPLC surface area %) ([1]; closed vial at 55° C., 2 weeks): −0.17% | Compound A (HPLC surface area %) ([1]; closed vial at 55° C., 4 weeks): 99.60% | Difference from initial value (HPLC surface area %) ([1]; closed vial at 55° C., 4 weeks): −0.17% | Compound A (HPLC surface area %) ([1]; closed vial at 55° C., Initial): 99.77% | Difference from initial value (HPLC surface area %) ([1]; closed vial at 55° C., Initial): 0% | Stability in words ([1]; normal / usual storage condition, conclusion from the stability tests): extremely stable | Moisture absorption in words [2]: absorbs a little moisture | Stability in words [2]: excellent

C[C@H]1C=C(c2csc(SC3=C(C(=O)O)N4C(=O)[C@H]([C@@H](C)O)[C@H]4[C@H]3C)n2)CN1 [Compound A, (4R,5S,6S)-6-[(1R)-1-hydroxyethyl]-4-methyl-3-({4-[(5S)-5-methyl-2,5-dihydro-1H-pyrrol-3-yl]-1,3-thiazol-2-yl}thio)-7-oxo-1-azabicyclo[3.2.0]hept-2-ene-2-carboxylic acid]
Activity against Gram positive bacteria [3]: excellent activity

C[C@H]1C=C(c2csc(SC3=C(C(=O)O)N4C(=O)[C@H]([C@@H](C)O)[C@H]4[C@H]3C)n2)CN1 [amorphous Compound A, (4R,5S,6S)-6-[(1R)-1-hydroxyethyl]-4-methyl-3-({4-[(5S)-5-methyl-2,5-dihydro-1H-pyrrol-3-yl]-1,3-thiazol-2-yl}thio)-7-oxo-1-azabicyclo[3.2.0]hept-2-ene-2-carboxylic acid]
Compound A (HPLC surface area %) ([1]; closed vial at 50° C., 1 week): 73.40% | Compound A (HPLC surface area %) ([1]; closed vial at 50° C., 3 weeks): 54.53% | Compound A (HPLC surface area %) ([1]; closed vial at 50° C., 6 weeks): 39.93% | Compound A (HPLC surface area %) ([1]; closed vial at 50° C., 8 weeks): 41.33% | Compound A (HPLC surface area %) ([1]; closed vial at 50° C., 1 day): 91.68% | Compound A (HPLC surface area %) ([1]; closed vial at 50° C., Initial): 97.95%
